The values that follow come from patent US8426364B2, “Method of preventing progression of hypertension-induced heart failure with PKC peptides” (The Board of Trustees of the Leland Stanford Junior …, priority 0011, dated 2013).

For data set [1], the system named is Dahl salt-sensitive rats. Briefly: Hypertension-induced heart failure rat model (survival, echocardiography, blood pressure, body weight). Format: in vivo. The following applies: for survival: treated for six weeks, compared to TAT control peptide; for Systolic Wall Stress: calculated (SBP × ESD)/[4 × PWT × (1 + PWT/ESD)]; for Systolic Wall Stress / EDD (LV end-diastolic diameter) / ESD (LV end-systolic diameter) / FS (LV fractional shortening) / PWT (LV posterior wall thickness): mean ± SEM. Here is the method:
To determine whether εPKC plays any role in the transition to heart failure and death, HS rats were treated with the selective εPKC inhibiting peptide, TAT47-57-εV1-2 (εV1-2; 2.8 μg/kg/day using a subcutaneous Alzet pump (26)) or with saline as a control (HS-control) from the age of 11 weeks (when compensatory hypertrophy is seen) to 17 weeks (when heart failure is apparent; FIG. 1A)). Another group of hypertensive rats was treated for the same period with a common clinical treatment, the angiotensin II receptor type 1 blocker (ARB, olmesartan, Olm; 3 mg/kg/day).
Animal protocols were approved by the Stanford University Institutional Animal Care and Use Committee. Dahl salt-sensitive rats provide a reliable animal model of hypertension-induced heart failure. When placed on 8% NaCl-containing diet from the age of 6 weeks (HS rats), the rats develop compensative left ventricular hypertrophy by the age of 11 weeks, and die from heart failure when they reach 16 to 21 weeks (21, 25). Male Dahl salt-sensitive rats were fed with an 8% NaCl-containing diet (Dahl-high-salt) or with a 0.3% NaCl low salt diet (LS-control; n=25) from the age of 6 weeks onward as previously reported (3, 21). Dahl-high-salt rats were treated between the ages of 11 and 17 weeks with the selective εPKC inhibiting peptide, TAT47-57-εV1-2 (εV1-2; n=10, 2.8 μg/kg/day), with TAT47-57-εV1-1 (εV1-1; n=14, 2.8 μg/kg/day), or with saline as a control (HS-Control; n=12), using osmotic pumps implanted subcutaneously. A fourth group was treated with angiotensin II receptor type 1 blocker, olmesartan (ARB; n=12, 3 mg/kg/day in 0.5% carboxymethylcellulose) delivered by daily gavage for the same period. A fifth group was treated from 15 to 17 weeks of age with the selective εPKC activating peptide, TAT47-57-ΨεRACK (ΨεRACK; n=17, 2.8 μg/kg/day) using an osmotic pump implanted subcutaneously (FIG. 1).
The osmotic pumps were replaced every two weeks, but were discontinued after the age of 17 weeks because half of the HS-control rats died by that age. Additional groups were treated with εV1-2 (using the Alzet pump) together with ARB (n=12) or with ARB alone (n=13) from 11 to 19 weeks of age (FIG. 6). Survival rate, fractional shortening and blood pressure were evaluated in these groups. Systolic blood pressure was measured by the tail-cuff method (BP-2000 Blood Pressure Analysis System, Visitech Systems, Inc), and fractional shortening was measured by transthoracic echocardiography (Vivid 7, GE). Additional control Dahl-high-salt rats were treated with TAT47-57 carrier peptide between 11 to 17 weeks or between 15 to 17 weeks, with vehicle for ARB (0.5% carboxymethylcellulose) or were left untreated and evaluated for survival rate, cardiac function and blood pressure.

Data set [2] deals with Dahl salt-sensitive rats. The data set is described as above. The format is in vivo. The following applies: age of 11, 13, 15 and 17 weeks; β peptide study.
The subject of data set [3] is Dahl salt-sensitive rats. The data set can be described thus: Histological analysis of left ventricle (Masson's trichrome, H&E). The format is in vivo, rat. Here is the method: For morphometric analysis, left ventricle (LV) specimens from 17-week-old rats (n=4 for each group) were fixed with 10% buffered formalin and embedded in paraffin. Several sections were prepared from each specimen and stained with either hematoxylin and eosin (H&E) for assessment of inflammation and proliferation of vascular cells, or with Masson's trichrome stain to assess the area of cardiac fibrosis using a point-counting method (22, 23).

The subject of a further data set is 92 genes. Briefly: Real-time PCR gene expression in LV tissue. Particulars: LV from 17-week-old rats; 92 genes examined. Format: in vivo, rat. Here is the method:
In another study, the effects of pharmacological inhibition or activation of εPKC and olmesartan on gene expression profile was analyzed. To address the molecular differences in the protective effects induced by εPKC inhibition and olmesartan, real-time PCR was used to monitor changes in gene expression resulting from each treatment. The effects of chronic treatment (as above) with the εPKC inhibitor (TAT47-57-εV1-2), the εPKC activator (TAT47-57-ΨεRACK) or olmesartan (ARB) in LV from 17-week-old rats on the expression of 92 genes was examined. […]
Two μg of total RNA extracted from the LV tissues of each […] rat (n=6 for each group) were converted to first-strand cDNA by reverse transcription using High Capacity cDNA Archive kit (Applied Biosystems). […] The fluorescence signals were normalized to the ubiquitously expressed housekeeping gene, β-actin. Fold-changes of mRNA expression of each group compared to the LS-control were determined by comparing cycle threshold values (24). Statistical analysis was assessed by 1-way factorial ANOVA with Fisher's test. […]

Setting [4] is: 17 weeks of age, high-salt rats, εV1-2 and Olm treated 11 to 17 weeks, ΨεR 15 to 17 weeks.
[5] abbreviates: 24 weeks of age, treated 11 to 19 weeks of age.

As for “βIIV5-3: βIIV5-3 peptide inhibitor QEVIRN (SEQ ID NO: 3), from the V5 domain of βIIPKC (Synthetic peptide inhibitor)”, the “left ventricular weight to body weight ratio (LVW/BW)” value with Dahl salt-sensitive rats [1] (17-weeks old rats) is recorded as “reduced”. Also, the fractional shortening entry with Dahl salt-sensitive rats [1] (at 17 weeks, vs TAT control, in words) is on record as “significantly reduced fractional shortening”. Also, the wall stress result in the data set with Dahl salt-sensitive rats [1] (hypertensive rats, in words) was “reduces wall stress”. The survival result in the data set with Dahl salt-sensitive rats [1] was “prolonged survival significantly longer than treatment with the βIV5-3 peptide inhibitor”. The systolic blood pressure entry with Dahl salt-sensitive rats [2] is “less than in the TAT or βIV5-3 peptide-treated animals”.
Take `CC[C@H](C)[C@H](NC(=O)[C@@H]1CCCN1C(=O)[C@H](C)NC(=O)[C@H](CC(=O)O)NC(=O)[C@H](Cc1c[nH]cn1)NC(=O)[C@@H](N)CSSC[C@H](N)C(=O)N[C@@H](Cc1ccc(O)cc1)C(=O)NCC(=O)N[C@@H](CCCNC(=N)N)C(=O)N[C@@H](CCCCN)C(=O)N[C@@H](CCCCN)C(=O)N[C@@H](CCCNC(=N)N)C(=O)N[C@@H](CCCNC(=N)N)C(=O)N[C@@H](CCC(N)=O)C(=O)N[C@@H](CCCNC(=N)N)C(=O)N[C@@H](CCCNC(=N)N)C(=O)N[C@@H](CCCNC(=N)N)C(=O)O)C(=O)NCC(=O)N[C@@H](Cc1ccc(O)cc1)C(=O)N[C@@H](CC(=O)O)C(=O)O` [ΨεR]: the arterial stenosis entry is “induced arterial stenosis” in the data set with Dahl salt-sensitive rats [3] (hypertensive rats, chronic treatment) and “did not cause arterial stenosis” with Dahl salt-sensitive rats [3] (normotensive Dahl salt-sensitive rats on a low-salt diet).
For the molecule `CCCc1nc(C(C)(C)O)c(C(=O)O)n1Cc1ccc(-c2ccccc2-c2nnn[nH]2)cc1` [Olm, olmesartan], the “Systolic Wall Stress” value in the data set with Dahl salt-sensitive rats [1] (17 weeks of age) was 50.7 ± 4.4 g/cm^2. Also, in the data set on Dahl salt-sensitive rats [1] (setting [4]), the “EDD (LV end-diastolic diameter)” value was found to be 7.3 ± 0.2 mm, the “ESD (LV end-systolic diameter)” value was determined as 3.1 ± 0.2 mm, the “FS (LV fractional shortening)” value turned out to be 58.4 ± 1.6 % and the “PWT (LV posterior wall thickness)” value was determined as 1.5 ± 0.04 mm. In the data set with Dahl salt-sensitive rats [1] (setting [5]), the “EDD (LV end-diastolic diameter)” value turned out to be 7.9 ± 0.2 mm, the “ESD (LV end-systolic diameter)” value was 4.9 ± 0.5 mm, the “FS (LV fractional shortening)” value came out at 38.3 ± 4.6% and the “PWT (LV posterior wall thickness)” value was found to be 1.5 ± 0.03 mm. The “Systolic Wall Stress” value in the data set on Dahl salt-sensitive rats [1] (24 weeks of age, treated 11 to 19 weeks) is 105.8 ± 13.6 g/cm^2. Besides, the “reduction of fibrosis in LV” value with Dahl salt-sensitive rats [3] (as compared with HS-control, 17-week-old rats, Masson's trichrome) is roughly 50%. For the same molecule, the “number of genes with expression modified by this treatment but not the other” value in the data set on 92 genes is 15 genes.
Regarding “βIV5-3: βIV5-3 PKC peptide inhibitor KLFIMN (SEQ ID NO: 2), from the V5 domain of βIPKC (Synthetic PKC peptide inhibitor)”, the survival entry in the data set with Dahl salt-sensitive rats [1] was “prolonged survival”.
